# Data taken from paper PMC12841663, “Antiprotozoal Potential of Cultivated Geranium macrorrhizum Against Giardia duodenalis, Trichomonas gallinae and Leishmania infantum” (International Journal of Molecular Sciences, 2026).
# Entries after “also recorded” stand apart in the source; their conditions may differ.
# Experiments:
# [1] = tested on: G. duodenalis trophozoites; test: Morphological evaluation by light microscopy (Diff-Quik), G. duodenalis; type: cell-based, Giardia duodenalis; conditions: germacrone 100 µg/mL
# Method: Each well contained 435 μL of culture medium and 15 μL of the test or control compounds at the above-mentioned concentrations. The chamber included: two wells for growth control (0.5 h, 48 h), two for germacrone (0.5 h, 48 h), and two for metronidazole (0.5 h, 48 h). Incubation was performed at 37 °C. At each time point, the medium was removed, wells were dried, fixed, and stained with Diff-Quik. Morphological changes were analyzed using light microscopy. Experiments were performed as independent biological replicates on different plates, and one Diff-Quik stained smear was obtained per condition and time point per biological replicate. For morphometric analysis, a total of 30 trophozoites per condition and time point were measured across the independent biological replicates and were selected by consecutive sampling during a predefined serpentine (zig-zag) scan across the preparation. Up to two eligible trophozoites per field (intact, well-focused and non-overlapping) were measured in sequential fields until n = 30 was reached, avoiding subjective selection of “representative” cells. Overlapping, partially visible, out-of-focus, edge-of-field, or debris-obscured trophozoites were excluded a priori. Trophozoites were photographed using a researcher's mobile phone mounted to the microscope ocular. Calibration was performed at the same magnification using a stage micrometre and applied in ImageJ v. 1.54d. One Diff-Quik stained smear was obtained per condition/time point per biological replicate Cell length, cell width, cell surface, nuclear length, nuclear width, axoneme (only Giardia), and length of axostyle (only T. gallinae) were measured with ImageJ software, and the data were recorded in an Excel database for statistical analysis. The Shapiro-Wilk test was used to assess the normality of the morphological variables. When data followed a normal distribution, Student's t-test was applied; otherwise, non-parametric tests, such as the Mann-Whitney U test, was used. Values of p < 0.05 were considered significant. For the morphological analysis, the mean, standard deviation, median, and interquartile range were calculated using SPSS version 20 (IBM Corp., Armonk, NY, USA).
# [2] = tested on: G. duodenalis trophozoites; test: Anti-Giardia activity assay (MTT viability); type: cell-based; conditions: pure compounds
# Method: Anti-Giardia (AG) activity assays were conducted on G. duodenalis trophozoites from the ATCC® 30957 strain (assemblage A), using flat-bottom microwell plates in quadruplicate. […] Incubation was carried out for 24 h at 37 °C. EOs and pure compounds were solved in DMSO (Sigma, Madrid, Spain) (<1% final concentration). […] Trophozoites/promastigotes viability was assessed using the modified MTT colorimetric assay, as described previously in the literature, with results further validated by microscopic examination. The plate was analyzed in a spectrophotometer at a wavelength of 570 nm. The percentage of antiparasitic activity was calculated as growth inhibition, using the following formula: % AT = 100 - [(Ap - Ab) ÷ (Ac - Ab)] × 100, where Ap is the absorbance of the tested product, Ab the absorbance of the blank and Ac the absorbance of the control wells (culture without treatment). […] Metronidazole (Acros Organics, Madrid, Spain) served as a reference compound for anti-Giardia activity and Anti-Trichomonas activity and amphotericin B for anti-Leishmania activity. Data was analyzed using STATGRAPHICS Centurion XIX ([…].com) (Statgraphics Technologies, Inc., The Plains, VA, USA). The mammalian cells and trophozoites viability were tested with each compound in a dose-response experiment to calculate their relative potency (CC50 or IC50 value, respectively).
# [3] = Cytotoxicity of pure compounds on Vero cells (MTT); type: cell-based; conditions: African green monkey
# Method: African green monkey kidney cells (Vero cells) were maintained in Dulbecco’s modified Eagle’s minimal essential medium (DMEM) (Thermo Fisher Scientific, Waltham, MA, USA) supplemented with 10% FBS and 1% Pen-Strep at 37 °C under a humidified atmosphere of 5% CO2/95% air.
# Cells seeded in 96-well flat-bottom microplates with 100 μL medium per well (initial densities 10^4 cells per well) were exposed for 48 h to serial dilutions (100, 75, 50, 25, 10 and 1 µg/mL) of the tested compounds in DMSO (<1% final concentration). Cell viability was analyzed by the MTT colorimetric assay method, and the purple-colored formazan precipitate was dissolved with 100 μL of DMSO [23].
# Data was analyzed using STATGRAPHICS Centurion XIX (https://www.statgraphics.com) (Statgraphics Technologies, Inc., The Plains, VA, USA). The mammalian cells and trophozoites viability were tested with each compound in a dose–response experiment to calculate their relative potency (CC50 or IC50 value, respectively). IC50 (μg/mL) expresses the dose of EOs, extracts or pure compounds needed to produce 50% mortality of trophozoites, while CC50 (μg/mL) expresses the dose of compounds necessary to produce 50% mortality of Vero cells.
# [4] = metronidazole 100 µg/mL, 0.5 and 48 h, control DMSO 1%
structure (smiles),measurement,setting,value
"CC(C)=C1C/C=C(\C)CC/C=C(\C)CC1=O [Compound 2, germacrone]",axoneme length vs control,[1]; [4],"decreased at 0.5 h; also recorded: at 48 h, germacrone caused an increase"
same,cell length vs control,[1]; [4],significant reductions at 30 min
same,cell width vs control,[1]; [4],"no differences were observed at 0.5 h with germacrone, but after 48 h, a significant increase"
same,nuclear length (left and right) vs control,[1]; [4],decreased significantly with germacrone at 0.5 h and later increased after 48 h
same,nuclear width vs control,[1]; [4],"reduction at 0.5 h, followed by an increase at 48 h"
same,morphological changes (light microscopy),"[1]; 48 h of exposure, Diff-Quik",less defined cytoplasm and nucleus of the cells
same,IC50,[2],55.2 µg/mL
same,CC50 at 48 h,[3],~100 µg/mL
